“Also recorded” adds a separate entry of the source. A value given as a limit tells only on which side of the number the result lay.

The text below walks through data of patent US11622966B2 (A2A Pharmaceuticals, Inc., priority 2018, dated 2023).

Series [1] is described as follows: Stability in mouse liver microsomes. Format: in vitro ADME. Conditions: MLM.
Series [2] relates to JIMT-1 cells. The series can be described thus: Colony formation assay. Conditions: 12 days, versus other two inhibitors at the same doses (FIG. 6B). It counts as cell-based, human. Here is the method:
For monolayer culture, single-cell suspensions of JIMT-1 cells (3×10^3 cells/well) were plated in a 12-well plate. […] For both experimental setups, the media were refreshed every 4 days, and cells were incubated for 12 days. Cells were then fixed with 2% paraformaldehyde for 15 min and stained with 1% crystal violet (Merck, Darmstadt, Germany) for 15 min at RT. Surviving colonies (composed of at least 50 cells) were counted with ImageJ software (NIH).

For series [3], the system named is JIMT-1 breast cancer cell lines. The series can be described thus: Cell viability assay (Cell Titer Glo), JIMT-1. Format: cell-based. The settings on record: Homo sapiens, JIMT-1 breast cancer cells, 72 hours, read-out: IC50, proliferation / cell viability of JIMT-1. Here is the method: As mentioned before, none of the available TACC3 inhibitors, such as KHS101 and SPL-B has yet advanced to the clinical studies. […] For this purpose, it was performed in-house screening of a series of small molecules by testing their anti-proliferative effects in breast cancer cells in which TACC3 is aberrantly expressed (Ma et al., 2003; Song et al., 2018). Specifically, JIMT-1 cell line was chosen for screening the effect of compounds in cell viability due to its high TACC3 protein level compared to other tested breast cancer cell lines as well as its in vivo tumorigenicity (Saatci et al., 2018; Tanner et al., 2004) (will be discussed in FIGS. 8 and 9-10, respectively).
(§1) KHS101 and SPL-B were dissolved in 100% DMSO to yield a stock concentration of 50 mM. Newly synthesized molecules were dissolved in 100% DMSO to yield a stock concentration of 10 mM. For cell viability assay, JIMT-1 (3×10^3 cells/well), BT-474 T-DM1R (6×10^3 cells/well), MDA-MB-436 (4×10^3 cells/well), MDA-MB-157 (3×10^3 cells/well) and MCF-12A (5×10^3 cells/well) cells were seeded, and 24 hours after cell seeding inhibitor treatments were performed at different concentrations. Cell viability was measured 72 hours after treatment with Cell Titer Glo assay as recommended by the manufacturer.
On the technique in general: In ATP-based viability assays light output follows the ATP content of the culture.

The test system of another series is JIMT-1 xenografts. The series can be described thus: Breast cancer xenograft experiments (JIMT-1 in mammary fat pad). Format: in vivo, female athymic nude mice. The method, then:
Six-to-eight-week-old female athymic nude mice were housed with a temperature-controlled and 12-hour light/12-hour dark cycle environment. This study was carried out in accordance with Institutional Animal Care and Use Committee of Bilkent University and performed according to the institution's guidelines and animal research principles. For in vivo tumor growth, 4×10^6 JIMT-1 cells were prepared in 150 μl of 1:1 DMEM and Matrigel (Corning, N.Y., USA), v/v) and injected into the mammary fat pads (MFP) of female nude mice. Mouse weight and tumor volume were measure daily using calipers. Tumor volumes were calculated as length×width×0.5. Once the tumor volume had reached about 100 mm^3, xenografts were randomized into groups.

Series [4] relates to JIMT-1, MDA-MB-436, MDA-MB-157 and BT-474 T-DM1R cell lines. The experiment in a line: Cell viability assay (Cell Titer Glo), breast cancer cell line panel. Format: cell-based, human. The settings on record: all cell lines tested, 72 hours, Cell Titer Glo (FIG. 6A).
A short description of series [5]: Kinetic solubility in sodium phosphate buffer. It counts as physicochemical. The settings on record: sodium phosphate buffer pH 7.4, 25° C., 2 h.
For the next series, the target named is T1, TACC3 (Homo sapiens, UniProt Q9Y6A5).
T1 construct: endogenous in cells; host or cells: JIMT-1
The series can be described thus: Target engagement assay (drug-target stabilization with increased temperature). Format: binding. The settings on record: JIMT-1 cells.

Series [6] is described as follows: Stability in human liver microsomes. Format: in vitro ADME. Conditions: HLM. (Microsomes from liver hold many membrane-bound enzymes, among them those of drug oxidation.)
In series [7] the test system is JIMT-1 cells. The experiment in a line: Western blot of mitotic arrest, DNA damage and apoptosis markers. It counts as cell-based, human. Conditions: 24 hours, Western blot (FIG. 6C). In general terms: A western blot detects proteins with antibodies after separation by electrophoresis.
Series [8] concerns the target T2, Purified TACC3 recombinant protein (Homo sapiens, UniProt Q9Y6A5).
T2 construct: purchased Origene TP310754
The series can be described thus: Isothermal titration calorimetry (ITC). It counts as binding. The settings on record: 25° C. Here is the method:
Titrations were carried out using Microcal 200 equipment (GE Healthcare, Austria) at 25° C. For each titration, 10 injections were made with 6 min spacing. The reference power was set at 2 μcal/sec, and the sample cell was continuously stirred at 500 rpm. In order to assess the binding efficiency between drug and protein, background data obtained by protein injected into buffer alone was subtracted from the experimental isotherms. The data was analyzed using Origin 7 Software provided along with the ITC200, and binding parameters such as association constant (Ka), number of binding sites (N) and enthalpy (ΔH) were calculated.

The nature of series [9]: Plasma protein binding by equilibrium dialysis. The settings on record: human, 37° C. Format: in vitro ADME.
For series [10], the system named is NCI-60 human cancer cell line panel. The experiment in a line: NCI-60 cancer cell line panel five-dose screening (SRB). Format: cell-based. The settings on record: read-out: GI50 (50% growth inhibition), NCI-60 five-dose screen, ~90% / almost all cell lines. Here is the method: Detailed screening methodology can be accessed from the National Cancer Institute webpage. Briefly, 24 h after cell seeding into 96-well plates, they were treated with 5-log M concentration range of the compound for 2 days. Cytotoxicity was assessed using sulphorhodamine B (SRB) assay.

The subject of series [11] is normal breast epithelial cells, MCF-12A. The experiment in a line: Cell viability assay, normal breast cell line. Format: cell-based. Here is the method:
Next, the specificity of BO-264 towards cancer cell lines over normal cells were tested.
as §1

In series [12] the test system is glioblastoma (GBM) xenografts. The settings on record: Polson et al., 2018; cited from earlier work.
[13] abbreviates: 5 mg/kg (oral) every two days for 30 days (FIG. 9).

For orientation: fraction unbound means free concentration divided by total concentration. Higher therefore signals weak binding. One may read the inhibition as the drop in the measured response relative to a control, in per cent. `COc1ccc(-c2cc(Nc3ccnc(N4CCOCC4)n3)on2)cc1` [BO-264, 3-(4-methoxyphenyl)-N-(2-morpholinopyrimidin-4-yl)isoxazol-5-amine]: the “stability in mouse liver microsomes” value in series [1] was “low stability”. Further, in the series with JIMT-1 cells [2], the “average colony number of JIMT-1 cells” value is “significantly lower”. Further, the IC50 in series [3] was determined as 232 nM. The “body weight of mice” value with JIMT-1 xenografts (2 mg/kg (oral or i.v) or 5 mg/kg (oral) every two days for 30 days (FIG. 10B)) is reported as “did not have any negative effect”; in the series on JIMT-1 xenografts (setting [13]), “no negative effects”. Besides, the “tumor growth rate compared with control group” value with JIMT-1 xenografts (2 mg/kg i.v every two days for 30 days (FIG. 10A)) is on record as “decreased”; with JIMT-1 xenografts (2 mg/kg oral every two days for 30 days (FIG. 10A)), “decreased”; in the series with JIMT-1 xenografts (5 mg/kg (oral) every two days for 30 days (FIG. 10A)), “the most significant effect on tumor growth”. In addition, the “tumor growth compared to SPL-B” value in the series with JIMT-1 xenografts (setting [13]) is “significant reduction of tumor growth”. For the same compound, the “tumor growth compared to vehicle-treated mice” value in the series with JIMT-1 xenografts (25 mg/kg oral for 23 days (FIG. 11A)) is given as “very significant reduction of tumor growth”. Further, the “tumor weights compared to vehicle group” value in the series on JIMT-1 xenografts (25 mg/kg oral for 23 days (FIG. 11B)) is “significantly lower”. Besides, the “mice weight / tolerability” value in the series with JIMT-1 xenografts (25 mg/kg oral for 23 days (FIG. 11C)) is listed as “well tolerated”. The “IC50 values compared with KHS101 and SPL-B” value in series [4] is recorded as “significantly lower IC50 values than the two available TACC3 inhibitors”. Also, the solubility result in [5] is reported as “low solubility”. The TACC3-BO-264 binding result at TACC3 is given as “validated”. The “stability in human liver microsomes” value in [6] is reported as “low stability”. In addition, the “induction of mitotic arrest, DNA damage and apoptosis markers” value in the series with JIMT-1 cells [7] was “at lower doses compared to other two TACC3 inhibitors; also recorded: in a dose-dependent manner”. Besides, the “N (number of binding sites)” value in series [8] was found to be 0.704. The ΔH in series [8] is 49290 kcal/mol. Also, in [8], the ΔS was 1.65E5 cal/mol/deg. In addition, in series [8] (titration of TACC3 into BO-264), the “K (association constant)” value amounted to 6.23E8. This compound also returned a fraction unbound in series [9] of 0.0113. Moreover, the GI50 in series [10] is under 1000 nM. In addition, in series [11] (Homo sapiens, MCF-12A, 72 h, read-out: growth inhibition of MCF-12A cells), the inhibition at 10 µM was under 50%. Besides, the “effect on normal breast cell line” value in series [11] (normal breast cell line) is reported as “minor effects”.
Regarding `CC(C)CNc1ccnc(NCc2csc(-c3ccccc3)n2)n1` [KHS101, reference compound], in [12], the “tumor growth of glioblastoma (GBM) xenografts” value is reported as “suppressed”. Further, the “induction of mitotic arrest, DNA damage and apoptosis markers” value in the series with JIMT-1 cells [7] is on record as “at considerably higher doses; also recorded: only observed at very high doses”.
